Tests used:
[1] = target: Serine/threonine-protein kinase PLK1 (Homo sapiens, UniProt P53350); experiment: Selectivity interaction (KinomeScan (DiscoverX)) EUB0000229b PLK1; conditions: at 10 µM
[2] = target: T1, Homeodomain-interacting protein kinase 4 (Homo sapiens) (UniProt Q8NE63); experiment: Selectivity interaction (KinomeScan (DiscoverX)) EUB0000229b HIPK4; conditions: at 10 µM
T1 sequence (whole entry): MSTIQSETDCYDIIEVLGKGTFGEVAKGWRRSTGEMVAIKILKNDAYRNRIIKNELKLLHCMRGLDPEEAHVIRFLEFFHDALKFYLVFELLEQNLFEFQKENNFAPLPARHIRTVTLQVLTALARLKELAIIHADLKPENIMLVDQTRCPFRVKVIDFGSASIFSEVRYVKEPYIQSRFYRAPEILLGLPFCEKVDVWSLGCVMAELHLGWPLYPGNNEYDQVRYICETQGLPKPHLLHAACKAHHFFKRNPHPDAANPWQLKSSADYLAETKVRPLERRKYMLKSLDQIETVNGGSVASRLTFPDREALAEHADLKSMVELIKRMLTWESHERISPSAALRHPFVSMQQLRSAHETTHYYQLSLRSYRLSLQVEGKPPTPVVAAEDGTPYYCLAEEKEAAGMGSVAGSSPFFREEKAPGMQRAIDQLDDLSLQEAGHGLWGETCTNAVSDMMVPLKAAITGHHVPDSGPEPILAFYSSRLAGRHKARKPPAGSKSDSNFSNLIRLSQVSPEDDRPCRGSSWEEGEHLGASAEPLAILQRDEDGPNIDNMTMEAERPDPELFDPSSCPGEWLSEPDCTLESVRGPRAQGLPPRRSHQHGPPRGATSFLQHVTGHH

[3] = target: T2, Serine/threonine-protein kinase 17B (Homo sapiens) (UniProt O94768); experiment: Selectivity interaction (KinomeScan (DiscoverX)) EUB0000655a STK17B; conditions: at 10 µM
T2 sequence (whole entry): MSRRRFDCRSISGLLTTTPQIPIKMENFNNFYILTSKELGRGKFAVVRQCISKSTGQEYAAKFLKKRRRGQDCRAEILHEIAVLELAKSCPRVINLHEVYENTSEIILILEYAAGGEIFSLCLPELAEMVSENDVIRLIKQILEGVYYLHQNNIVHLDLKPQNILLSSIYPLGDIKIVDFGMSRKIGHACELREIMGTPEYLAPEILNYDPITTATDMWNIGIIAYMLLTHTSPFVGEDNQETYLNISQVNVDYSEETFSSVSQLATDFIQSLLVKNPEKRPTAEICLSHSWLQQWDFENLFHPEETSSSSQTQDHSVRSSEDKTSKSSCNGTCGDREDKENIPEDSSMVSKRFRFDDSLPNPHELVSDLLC

[4] = target: Cyclin-dependent kinase 13 (Homo sapiens, UniProt Q14004); experiment: Selectivity interaction (KinomeScan (DiscoverX)) EUB0000655a CDK13; conditions: at 10 µM
Sequence of Cyclin-dependent kinase 13 (Q14004 whole entry, looked up): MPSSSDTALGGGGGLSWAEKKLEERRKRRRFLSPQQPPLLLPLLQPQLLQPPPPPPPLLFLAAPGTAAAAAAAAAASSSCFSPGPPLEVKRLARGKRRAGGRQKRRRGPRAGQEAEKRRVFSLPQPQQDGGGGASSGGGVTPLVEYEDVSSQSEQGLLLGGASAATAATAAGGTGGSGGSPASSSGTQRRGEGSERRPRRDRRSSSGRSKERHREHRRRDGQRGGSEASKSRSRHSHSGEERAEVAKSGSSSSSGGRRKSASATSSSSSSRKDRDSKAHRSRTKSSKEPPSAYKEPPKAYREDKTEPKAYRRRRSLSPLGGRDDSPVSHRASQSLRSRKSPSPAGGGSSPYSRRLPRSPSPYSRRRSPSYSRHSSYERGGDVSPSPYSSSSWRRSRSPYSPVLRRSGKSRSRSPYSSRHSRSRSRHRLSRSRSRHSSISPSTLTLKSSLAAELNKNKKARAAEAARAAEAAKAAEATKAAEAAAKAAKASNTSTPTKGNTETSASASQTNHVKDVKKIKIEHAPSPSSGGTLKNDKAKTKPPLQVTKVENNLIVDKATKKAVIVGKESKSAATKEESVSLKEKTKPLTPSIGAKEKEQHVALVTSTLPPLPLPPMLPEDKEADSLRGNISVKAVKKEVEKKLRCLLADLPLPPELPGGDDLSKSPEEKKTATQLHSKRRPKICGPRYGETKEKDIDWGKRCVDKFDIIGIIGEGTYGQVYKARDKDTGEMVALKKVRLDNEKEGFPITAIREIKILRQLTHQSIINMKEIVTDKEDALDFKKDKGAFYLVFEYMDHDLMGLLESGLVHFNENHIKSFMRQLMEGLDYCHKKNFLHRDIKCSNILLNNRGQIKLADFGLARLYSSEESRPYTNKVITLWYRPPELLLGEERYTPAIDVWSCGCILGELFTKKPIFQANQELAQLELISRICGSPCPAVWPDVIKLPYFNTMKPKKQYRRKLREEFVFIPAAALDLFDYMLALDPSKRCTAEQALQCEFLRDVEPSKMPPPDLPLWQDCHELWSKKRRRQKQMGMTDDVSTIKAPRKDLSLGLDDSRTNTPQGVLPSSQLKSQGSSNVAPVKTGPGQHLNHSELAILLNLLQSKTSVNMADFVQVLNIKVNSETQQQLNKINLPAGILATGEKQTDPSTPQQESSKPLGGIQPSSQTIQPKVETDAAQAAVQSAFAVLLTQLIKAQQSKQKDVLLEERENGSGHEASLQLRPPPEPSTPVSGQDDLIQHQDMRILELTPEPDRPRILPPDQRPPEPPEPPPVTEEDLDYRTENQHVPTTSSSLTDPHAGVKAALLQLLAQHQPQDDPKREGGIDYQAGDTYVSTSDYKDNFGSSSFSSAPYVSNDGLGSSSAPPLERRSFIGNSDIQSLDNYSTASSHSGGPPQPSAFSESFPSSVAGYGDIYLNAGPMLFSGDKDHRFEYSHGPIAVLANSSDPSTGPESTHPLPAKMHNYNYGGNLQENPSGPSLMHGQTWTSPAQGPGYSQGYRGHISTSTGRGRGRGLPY

[5] = target: G protein-coupled receptor kinase 5 (Homo sapiens, UniProt P34947); experiment: Selectivity interaction (Kinase panel (DSF assay)) EUB0001559a GRK5
Sequence of G protein-coupled receptor kinase 5 (P34947 whole entry, looked up): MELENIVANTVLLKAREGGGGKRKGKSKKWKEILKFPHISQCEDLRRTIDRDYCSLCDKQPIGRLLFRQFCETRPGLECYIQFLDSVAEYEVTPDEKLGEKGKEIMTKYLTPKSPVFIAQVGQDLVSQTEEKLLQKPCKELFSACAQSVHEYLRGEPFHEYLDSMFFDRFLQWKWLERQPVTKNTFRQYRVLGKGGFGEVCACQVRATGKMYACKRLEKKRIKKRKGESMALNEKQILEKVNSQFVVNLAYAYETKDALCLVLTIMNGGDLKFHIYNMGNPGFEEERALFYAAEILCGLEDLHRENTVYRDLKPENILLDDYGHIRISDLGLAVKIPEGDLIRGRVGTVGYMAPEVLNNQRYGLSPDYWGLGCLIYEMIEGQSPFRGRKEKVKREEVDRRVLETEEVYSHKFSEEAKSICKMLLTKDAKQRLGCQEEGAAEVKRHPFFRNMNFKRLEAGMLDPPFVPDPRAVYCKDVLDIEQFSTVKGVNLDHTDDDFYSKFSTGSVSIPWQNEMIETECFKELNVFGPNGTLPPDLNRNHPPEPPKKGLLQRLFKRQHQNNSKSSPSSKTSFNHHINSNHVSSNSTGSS

[6] = target: T3, Serine/threonine-protein kinase NLK (Homo sapiens) (UniProt Q9UBE8); conditions: at 10 µM
T3 sequence (whole entry): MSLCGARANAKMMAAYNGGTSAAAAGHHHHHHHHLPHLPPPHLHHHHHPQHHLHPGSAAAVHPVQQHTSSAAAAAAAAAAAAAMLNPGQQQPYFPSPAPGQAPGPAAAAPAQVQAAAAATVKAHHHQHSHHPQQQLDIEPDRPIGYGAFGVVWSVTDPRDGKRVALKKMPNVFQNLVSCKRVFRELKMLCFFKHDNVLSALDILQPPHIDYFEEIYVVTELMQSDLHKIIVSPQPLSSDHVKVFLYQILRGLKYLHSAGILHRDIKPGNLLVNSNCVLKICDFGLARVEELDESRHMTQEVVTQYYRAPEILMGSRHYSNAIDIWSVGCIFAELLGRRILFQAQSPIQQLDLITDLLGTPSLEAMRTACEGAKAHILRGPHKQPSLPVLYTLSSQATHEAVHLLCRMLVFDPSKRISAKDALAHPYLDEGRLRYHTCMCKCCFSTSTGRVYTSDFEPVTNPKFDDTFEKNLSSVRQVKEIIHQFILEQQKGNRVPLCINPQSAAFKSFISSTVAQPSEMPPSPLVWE

[7] = target: Sodium-dependent serotonin transporter (Homo sapiens, UniProt P31645); experiment: Selectivity interaction (Panel of kinases, GPCRs, ion channels and transporters (enzymatic assay)) EUB0000223bCl SLC6A4
Sequence of Sodium-dependent serotonin transporter (P31645 whole entry, looked up): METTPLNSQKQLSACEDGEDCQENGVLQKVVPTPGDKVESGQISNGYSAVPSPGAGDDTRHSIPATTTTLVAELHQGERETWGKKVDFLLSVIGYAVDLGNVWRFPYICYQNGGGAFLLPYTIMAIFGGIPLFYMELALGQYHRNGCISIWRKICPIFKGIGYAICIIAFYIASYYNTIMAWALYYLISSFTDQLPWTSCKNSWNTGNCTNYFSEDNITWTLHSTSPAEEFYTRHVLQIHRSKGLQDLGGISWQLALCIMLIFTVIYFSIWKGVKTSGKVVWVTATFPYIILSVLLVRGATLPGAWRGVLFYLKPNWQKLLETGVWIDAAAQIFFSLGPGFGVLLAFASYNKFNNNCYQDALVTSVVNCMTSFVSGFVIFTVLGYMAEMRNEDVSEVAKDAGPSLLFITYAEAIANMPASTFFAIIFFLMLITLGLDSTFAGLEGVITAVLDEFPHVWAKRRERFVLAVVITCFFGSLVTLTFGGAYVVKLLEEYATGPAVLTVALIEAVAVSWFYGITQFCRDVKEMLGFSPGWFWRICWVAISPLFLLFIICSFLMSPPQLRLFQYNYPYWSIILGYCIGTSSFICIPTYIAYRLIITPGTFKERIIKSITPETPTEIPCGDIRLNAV

[8] = target: T4, Membrane-associated tyrosine- and threonine-specific cdc2-inhibitory kinase (Homo sapiens) (UniProt Q99640); experiment: Selectivity interaction (KinomeScan (DiscoverX)) EUB0000695a PKMYT1; conditions: at 100 nM
T4 sequence (whole entry): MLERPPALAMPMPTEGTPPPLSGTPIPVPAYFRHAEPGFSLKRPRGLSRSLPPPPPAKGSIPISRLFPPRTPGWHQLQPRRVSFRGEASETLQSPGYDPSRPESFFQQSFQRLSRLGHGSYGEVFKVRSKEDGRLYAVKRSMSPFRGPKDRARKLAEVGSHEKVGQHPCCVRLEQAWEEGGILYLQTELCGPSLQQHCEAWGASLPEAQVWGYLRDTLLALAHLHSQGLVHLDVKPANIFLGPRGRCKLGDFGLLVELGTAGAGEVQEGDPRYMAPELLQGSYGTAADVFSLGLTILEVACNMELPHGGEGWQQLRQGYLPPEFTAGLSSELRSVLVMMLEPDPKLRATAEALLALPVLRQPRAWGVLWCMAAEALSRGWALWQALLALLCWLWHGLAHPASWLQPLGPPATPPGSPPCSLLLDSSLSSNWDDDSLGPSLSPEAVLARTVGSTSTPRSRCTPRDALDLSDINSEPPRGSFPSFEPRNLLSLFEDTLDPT

[9] = target: T5, Interleukin-1 receptor-associated kinase 4 (Homo sapiens) (UniProt Q9NWZ3); experiment: Selectivity interaction (KinomeScan (DiscoverX)) EUB0000695a IRAK4; conditions: at 100 nM
T5 sequence (whole entry): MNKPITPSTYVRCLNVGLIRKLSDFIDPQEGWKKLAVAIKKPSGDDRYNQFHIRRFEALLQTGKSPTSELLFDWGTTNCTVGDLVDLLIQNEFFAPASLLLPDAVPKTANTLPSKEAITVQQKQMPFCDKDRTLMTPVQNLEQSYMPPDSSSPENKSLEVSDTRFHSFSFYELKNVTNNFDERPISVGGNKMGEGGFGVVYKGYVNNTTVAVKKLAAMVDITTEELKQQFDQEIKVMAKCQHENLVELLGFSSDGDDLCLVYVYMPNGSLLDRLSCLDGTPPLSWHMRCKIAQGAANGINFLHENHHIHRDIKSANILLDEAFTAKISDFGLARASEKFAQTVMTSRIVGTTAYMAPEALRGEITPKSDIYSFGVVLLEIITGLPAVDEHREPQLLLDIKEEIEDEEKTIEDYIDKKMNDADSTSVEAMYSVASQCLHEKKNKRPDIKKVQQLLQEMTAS

[10] = target: Cyclin-dependent kinase 3 (Homo sapiens) (UniProt Q00526); experiment: Selectivity interaction (KinomeScan (DiscoverX)) EUB0000618a CDK3; conditions: at 10 µM
Sequence of Cyclin-dependent kinase 3 (Homo sapiens) (Q00526 whole entry, looked up): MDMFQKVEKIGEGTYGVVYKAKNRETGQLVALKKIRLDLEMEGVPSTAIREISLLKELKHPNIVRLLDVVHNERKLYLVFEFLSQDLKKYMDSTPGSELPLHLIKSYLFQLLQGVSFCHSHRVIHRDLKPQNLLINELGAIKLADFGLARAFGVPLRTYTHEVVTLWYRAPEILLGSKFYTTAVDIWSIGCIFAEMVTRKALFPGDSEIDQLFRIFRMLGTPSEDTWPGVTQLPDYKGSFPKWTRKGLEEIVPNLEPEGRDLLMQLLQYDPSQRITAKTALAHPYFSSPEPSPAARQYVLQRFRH

Sequence of Serine/threonine-protein kinase PLK1 (P53350 whole entry): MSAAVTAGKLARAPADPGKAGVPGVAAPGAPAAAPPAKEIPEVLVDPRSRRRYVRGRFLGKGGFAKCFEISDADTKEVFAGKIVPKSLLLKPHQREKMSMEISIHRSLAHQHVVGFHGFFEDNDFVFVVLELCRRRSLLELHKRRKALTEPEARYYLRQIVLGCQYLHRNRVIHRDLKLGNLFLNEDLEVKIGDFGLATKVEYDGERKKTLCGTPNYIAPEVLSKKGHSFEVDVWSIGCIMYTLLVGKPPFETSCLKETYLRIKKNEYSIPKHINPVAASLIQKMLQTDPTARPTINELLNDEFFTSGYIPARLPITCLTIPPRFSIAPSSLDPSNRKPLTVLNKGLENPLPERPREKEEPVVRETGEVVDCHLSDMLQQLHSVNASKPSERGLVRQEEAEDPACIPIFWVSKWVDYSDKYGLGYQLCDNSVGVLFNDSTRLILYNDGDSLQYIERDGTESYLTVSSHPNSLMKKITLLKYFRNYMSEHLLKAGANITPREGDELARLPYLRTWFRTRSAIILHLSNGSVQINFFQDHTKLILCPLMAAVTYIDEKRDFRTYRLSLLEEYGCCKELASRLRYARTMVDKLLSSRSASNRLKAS

Structure (SMILES): COc1cc(N(C)c2ccnc3ccc(C(F)(F)F)cc23)cc(OC)c1OC
- % binding [1]: 100%
- % binding [2]: 100%

Structure (SMILES): CN(C)CCOc1ccc(-c2nc(-c3ccncc3)c(-c3ccc4c(c3)CC/C4=N\O)[nH]2)cc1
- % of control [3]: 87%
- % of control [4]: 100%

Structure (SMILES): CN(C(=O)c1cnn2cccnc12)c1cc2c(cc1N1CCOCC1)C(=O)N(C[C@@H](F)C(C)(C)O)C2
- dTM [5]: 0 K

Structure (SMILES): Cc1cc([C@@H](C)Nc2ccccc2C(=O)O)c2nc(N3CCOCC3)cc(=O)n2c1 [AZD-6482]
- % of control [6]: 94%

Structure (SMILES): COc1cc(C(=O)N2CC[C@@H](O)[C@@H](N)C2)cc2nc(-c3cc4ccccc4n3CC3CC3)n(C)c12
- pXC50 [7]: 4.3 M

Structure (SMILES): Cc1cc(F)c(C(=O)Nc2cccc(-c3nncn3C(C)C)n2)cc1-n1cnc(C2CC2)c1
- % of control [8]: 98%
- % of control [9]: 85%

Structure (SMILES): O[C@H]1CC[C@H](Nc2ncc3nc(Nc4c(F)cc(F)cc4F)n([C@H]4CCOC4)c3n2)CC1
- % of control [10]: 100%
